The values that follow are results of earlier work, collected in patent US12440441B2 (LIQMEDS WORLDWIDE LIMITED, priority 2021, dated 2025).

Series [1] has as its system calcium channel. The settings on record: Stopher.

As to `CCOC(=O)C1=C(COCCN)NC(C)=C(C(=O)OC)C1c1ccccc1Cl` (stereo not drawn) [Amlodipine besylate, amlodipine besylate], under “ethanol”, the solubility in ethanol entry is “sparingly soluble”. The solubility in water entry (water) was “slightly soluble”.

Regarding `CCOC(=O)c1c(COCCN)nc(C)c(C(=O)OC)c1-c1ccccc1Cl` [Impurity A, Amlodipine Related Substance A], the “calcium antagonist activity relative to amlodipine” value in series [1] is recorded as “does not show any significant calcium antagonist activity”.
